Results on three molecules are retold here after patent US6870154B1, “Capillary mixer with adjustable reaction chamber volume for mass spectrometry” (The University of Western Ontario, priority 2004, dated 2005).

Data set [1] in a line: refolding of ubiquitin from the A state, kinetic mode ESI-MS. As for the experimental part: (§1) For demetalation experiments, syringe 1 contained 40 μM chlorophyll in methanol and syringe 2 contained HCl in methanol at concentrations ranging from 30 to 100 mM. Both syringes were advanced at 30 μL/min for a total flow rate 60 μL/min in the reaction capillary. Ubiquitin refolding studies were carried out by having syringe 1 filled with 20 μM protein in 46% water, 50% methanol, and 4% acetic acid. Syringe 2 contained water. The two syringes were advanced at 20 and 50 μL/min, respectively, for a total flow rate of 70 μL/min. Final solution conditions after mixing ere 14.3% methanol and 1.1% acetic acid.
The A state was populated by exposing the protein to 50% methanol and 4% acetic acid; refolding was initiated by mixing with an excess volume of water. ESI mass spectra of ubiquitin for different times after initiation of refolding are depicted in FIG. 7. […] This spectrum is practically indistinguishable from that of the protein prior to initiation of refolding (data not shown) and very similar to ubiquitin A state spectra that have been published previously.^14, 51 As refolding proceeds, the relative abundance of highly charged protein ions decreases and that of the […] and 7+ ions increases (FIGS. 7B,C). The final spectrum was recorded off-line 5 min after initiation of refolding in a manual mixing experiment.
The diffusion coefficient of ubiquitin can be estimated to be around D=1×10^−10 m^2/s.^52 According to condition 7, this implies that diffusion effects on the observed kinetics are negligible in an experimental time window up to τ≈2 s. The data can therefore be fitted based on eq 5 (solid lines in FIG. 8). C(τ) expressions for the 13+ and 12+ions were generated by assuming the model function C(t)=a1 exp(−kobst)+a0, whereas the analysis of the 8+ and 7+ ions was based on C(t)=b1(1−exp(−kobst))+b0. […] Instead, the kinetic profiles level off at ˜20% of their initial values. This effect can be attributed to a subpopulation of slow-folding ubiquitin molecules that contain non-native cis-proline isomers.^53 Proline isomerization, taking place on the order of tens of seconds, 54 is the rate-limiting step for the refolding of this subpopulation. […] Processes occurring on such a slow time scale are beyond the range accessible by our rapid mixing setup.

The target of another data set is T1, α-chymotrypsin (Bos taurus, UniProt P00766).
T1 construct: Peaks labeled with α and δ′ correspond to α- and δ′-chymotrypsin, respectively; purchased Sigma (St. Louis, Mo.)
Briefly: pre-steady-state hydrolysis of p-NPA by chymotrypsin, on-line kinetic ESI-MS. In kind it is biochemical. The conditions noted are these: fit of kobs to Equation 12, pH 7.8, 20% methanol, 22 °C. An excerpt:
(§2) Chymotrypsin is a member of the serine protease family. ^86-88 Ser195 represents the reactive nucleophile in the active site of this enzyme. Although the physiological role of chymotrypsin is to serve as an endopeptidase, it also catalyzes the hydrolysis of esters, including numerous synthetic substrate analogs. […] Subsequently, Ser195 forms a covalent bond with the carbonyl carbon of the substrate, thus releasing the first hydrolysis product P1. The rate constant of this acylation step is denoted as k2. The subsequent de-acylation has a rate constant of k3, and it leads to regeneration of the free enzyme by hydrolysis of the Ser195-ester bond, through release of the second hydrolysis product P2. For conditions where S is present in large excess, it can be shown that the concentration of P1 as a function of time t in the pre-steady-state regime is given by Equation 9^58, 59: [P1](t)=C1(1−exp(−kobst))+C2t (9) and the concentration-time profile of the covalent EP2 complex can be expressed as Equation 10: [EP2](t)=C3(1−exp(−kobst)) (10). Consequently, the sum of the concentrations of free enzyme and ES complex are given by Equation 11: ([Efree]+[ES](t)=C4exp(−kobst)+C5 (11). C1, . . . , C5 in these expressions are constants, and kobs is given by Equation 12: [formula] where [S] is the substrate concentration. Measurements of kobs as a function of substrate concentration allow the determination of the parameters k2, k3, and Kd in Scheme 8.
(§3) On-line kinetic ESI-MS experiments. ESI-MS-based kinetic experiments were carried out on a custom built continuous flow mixing apparatus described in FIG. 2. Briefly, this setup consists of two concentric capillaries, that are connected to sample injection syringes. Reactions are initiated by mixing of two solutions at the outlet of the inner capillary. The reaction time is determined by the solution flow rate, and by the distance between the mixing region and the end of the outer capillary. For experiments in kinetic mode, the inner capillary is steadily withdrawn from the end of the outer capillary, while the mass spectrometer is set to monitor selected m/z values, corresponding to specific solution-phase species, as a function of time. In spectral mode, the inner capillary is set at specific distances from the end of the outer capillary, such that entire mass spectra can be obtained for selected reaction times.
(§4) For the experiments described here, both reactant solutions were introduced into the apparatus at 20 μL/min using syringe pumps (Harvard Apparatus, Saint Laurent, QC) for a total flow rate of 40 μL/min after the mixer. […]

The target of another data set is T2, δ′-chymotrypsin (Bos taurus, UniProt P00766).
T2 construct: Peaks labeled with α and δ′ correspond to α- and δ′-chymotrypsin, respectively; purchased Sigma (St. Louis, Mo.)
Described as above. In kind it is biochemical. The following applies: fit of kobs to Equation 12, pH 7.8, 20% methanol, 22 °C.
Excerpt: as §2, §3, §4

For data set [2], the target named is T3, chymotrypsin (a mixture of the α form and δ′ forms) (Bos taurus, UniProt P00766).
T3 construct: Chymotrypsin (a mixture of the α form and δ′ forms); purchased Sigma (St. Louis, Mo.)
As to the kind of experiment: p-NPA hydrolysis by optical stopped-flow spectroscopy (release of p-NP). In kind it is biochemical. The following applies: weighted average of α and δ′-chymotrypsin. Here is the method: (§5) Optical Stopped-Flow Measurements. These measurements were performed on an SFM-4 instrument (Bio-Logic, Claix, France), using an observation wavelength of 664 nm for monitoring the demetalation of chlorophyll. The two stepper motor-driven syringes used were advanced at 3.5 mL/s each, for an instrument dead time of 3.3 ms. All experiments were carried out at room temperature (22±1° C.).
Enzymatic reactions. The limited solubility of p-NPA in purely aqueous solutions necessitated the use of 20% (v/v) methanol in the reaction mixture. […] These solutions were mixed in a 1:1 ratio with 32 μM chymotrypsin in water for a final pH of 7.8, which corresponds to the pH optimum of the enzyme. […] Experiments on bradykinin were carried out in an analogous manner, but in purely aqueous solution, and by using 20% (v/v) acetic acid in water as makeup solvent. […] Substrate concentrations given below represent the values in the reaction mixture, i.e., after the first mixing step. […]
Measurements of kobs as a function of substrate concentration were also carried out by stopped-flow spectroscopy, using the release of the yellow p-NP moiety as optical probe. In contrast to the ESI-MS experiments, these optical studies cannot discern the two forms of the enzyme, and therefore the measured data represent a weighted average of the substrate conversion caused by a and δ′-chymotrypsin. […]

The target in another data set is T4, chymotrypsin (Bos taurus, UniProt P00766).
T4 construct: Chymotrypsin (a mixture of the α form and δ′ forms); purchased Sigma (St. Louis, Mo.)
The conditions noted are these: previously reported, cited from earlier work.

The nature of data set [3]: demetalation of chlorophyll a in acidic methanol, kinetic mode ESI-MS. In kind it is physicochemical. The conditions noted are these: HCl, quadratic fit. Here is the method:
as §1
On-Line Kinetic ESI-MS Measurements. These measurements were carried out using a custom-built continuous-flow mixing apparatus that is based on two concentric capillaries (FIG. 1).
Instrument Performance in Kinetic Mode. […]
The apparatus depicted in FIG. 1 was used for monitoring the kinetics of chlorophyll demetalation in methanol solution for acid concentrations ranging from 15 to 50 mM. […] Nevertheless, it is clear that the temporal resolution of our novel mixing device exceeds that of other on-line ESI-MS techniques, which so far allowed rate constants up to ˜25 s^−1 to be measured.^16

The nature of data set [4]: demetalation of chlorophyll a in acidic methanol, optical stopped-flow spectroscopy. In kind it is physicochemical. The conditions noted are these: 664 nm, quadratic fit. Here is the method: as §5
Instrument Performance in Kinetic Mode. The demetalation of chlorophyll a in acidic solution is a well-characterized process, during which the central magnesium of the porphyrin is displaced by two protons.^40-42 This reaction represents a convenient test system, because it allows kinetic measurements by ESI-MS and by standard optical stopped-flow absorption spectroscopy. When studied under pseudo-first-order conditions, the rate constant of the reaction is given by kobs=k[H^+]^2. The intrinsic rate constant k in this expression is known to be strongly solvent-dependent.^41, 42

Setting [5] is: read-out: dissociation constant Kd.
Setting [6] is: much higher buffer concentrations.

For ubiquitin, the refolding kobs in data set [1] (8+ ion, 14.3% methanol, 1.1% acetic acid) worked out at 5.3 s⁻¹; in data set [1] (9+ ion) it was 5.3 s⁻¹; in data set [1] (12+ ion), 5.2 s⁻¹; in data set [1] (13+ ion) it was 5.1 s⁻¹. In addition, in data set [1] (average of the four fits), the “refolding kobs, average value” was 5.2 s⁻¹.
Regarding `CC(=O)Oc1ccc([N+](=O)[O-])cc1` [p-NPA, para-nitrophenyl acetate], the entries for the “k2 (acylation rate constant)” value on α-chymotrypsin and at δ′-chymotrypsin were 3.2 ± 0.3 s⁻¹ and 3.7 ± 0.3 s⁻¹, respectively. In addition, the Kd was 1400 ± 200 µM on α-chymotrypsin (setting [5]), 1700 ± 200 µM at δ′-chymotrypsin (setting [5]), 1600 ± 100 µM in data set [2] and 7000 µM at chymotrypsin (setting [6]). The k2 was 3.6 ± 0.2 s⁻¹ in data set [2] and 3 s⁻¹ at chymotrypsin (setting [6]). For the same molecule, the k3 at chymotrypsin was 0.03 s⁻¹.
Regarding `C=Cc1c(C)c2cc3nc(c4c5[n-]c(cc6nc(cc1[n-]2)C(C)=C6CC)c(C)c5C(=O)[C@@H]4C(=O)OC)[C@@H](CCC(=O)OC/C=C(\C)CCC[C@H](C)CCC[C@H](C)CCCC(C)C)[C@@H]3C.[Mg+2]` [chlorophyll a, Chlorophyll a], the “intrinsic rate constant k of demetalation (kobs=k[H+]^2)” value in data set [3] is reported as 0.048±0.002 mM^−2s^−1. Besides, the “intrinsic rate constant k of demetalation” value in data set [4] was found to be 0.050±0.001 mM^−2 s^−1.

By Kd is commonly meant the constant that tells how readily two partners part at equilibrium.
